# Assays:
# Test in all cases: relative viability (nuclei count vs DMSO), 5 days (fraction); higher = more cells survive
# [1] = compound: N#CC1(c2ccc(NC(=O)c3cccnc3NCc3ccncc3)cc2)CCCC1 [Apatinib] + N=C(N)NC(=N)NCCc1ccccc1 [Phenformin] (partner 250 µM)
# How it was run: (§1)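 Relative viability was taken as the ratio of nuclei in treated wells to nuclei in vehicle wells. Lung cancer cell lines in 1536-well plates received compounds by pin tool one day after seeding, either one drug alone or a fixed anchor-drug dose plus five library-drug doses (not always all listed) in √10 steps. Nuclei were counted on 4× images after 5 days of treatment, and values are medians of duplicate plates.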
# [2] = compound: CN(C)C(=N)NC(=N)N [Metformin] + NC(=O)Nc1cc(-c2cccc(F)c2)sc1C(=O)N[C@H]1CCCNC1 [AZD7762] (partner 0.2 µM)
# How it was run: as §1
# [3] = compound: CN(C)C(=N)NC(=N)N [Metformin] + Nc1nc2[nH]cc(CCc3ccc(C(=O)N[C@@H](CCC(=O)O)C(=O)O)cc3)c2c(=O)[nH]1 [Pemetrexed] (partner 0.2 µM)
# How it was run: as §1
# [4] = compound: CN(C)C(=N)NC(=N)N [Metformin] + Cc1cc(Nc2cc(N3CCN(C)CC3)nc(Sc3ccc(NC(=O)C4CC4)cc3)n2)n[nH]1 [Tozasertib] (partner 0.1 µM)
# How it was run: as §1
Cell Line,relative viability ([1]; first compound 0.08 µM),relative viability ([1]; first compound 0.253 µM),relative viability ([1]; first compound 0.8 µM),relative viability ([1]; first compound 2.53 µM),relative viability ([1]; first compound 8 µM),relative viability ([2]; first compound 10 µM),relative viability ([2]; first compound 31.62 µM),relative viability ([2]; first compound 100 µM),relative viability ([2]; first compound 316.23 µM),relative viability ([2]; first compound 1000 µM),relative viability ([3]; first compound 10 µM),relative viability ([3]; first compound 31.62 µM),relative viability ([3]; first compound 100 µM),relative viability ([3]; first compound 316.23 µM),relative viability ([3]; first compound 1000 µM),relative viability ([4]; first compound 10 µM),relative viability ([4]; first compound 31.62 µM),relative viability ([4]; first compound 100 µM),relative viability ([4]; first compound 316.23 µM),relative viability ([4]; first compound 1000 µM)
NCI-H23,0.851,0.733,0.735,0.717,0.705,0.351,0.178,0.348,0.293,0.421,0.679,0.852,0.652,0.586,0.79,0.382,0.49,0.433,0.445,0.498
NCI-H2087,0.499,0.46,0.424,0.339,0.374,1.3,1.21,1.12,1.11,1.39,0.622,0.702,0.615,0.536,0.614,,0.281,0.246,0.253,0.245
NCI-H358,0.316,0.353,0.321,0.377,0.383,0.619,0.449,0.461,0.519,0.532,0.156,0.182,0.146,0.162,0.179,0.0917,0.104,0.101,0.0897,0.0865
ChaGo-K-1,0.473,0.528,0.425,0.424,0.428,0.788,0.956,0.938,0.849,0.862,0.259,0.277,0.259,0.257,0.256,0.254,0.281,0.246,0.202,0.22
PC-14,0.445,0.793,,0.476,0.446,0.31,0.343,0.383,0.304,0.392,0.167,0.154,0.164,0.14,0.157,0.618,0.714,0.673,0.674,0.814
NCI-H596,0.801,0.724,0.723,0.705,0.711,1.18,1.13,1.3,1.08,1.23,0.582,0.563,0.546,0.498,0.539,0.955,0.93,1.1,0.985,0.938
LOU-NH91,0.651,0.73,0.631,0.659,0.665,0.743,0.668,0.716,0.681,0.718,0.438,0.394,0.409,0.385,0.437,0.595,0.633,0.703,0.633,0.65
LU99A,0.914,1.01,0.816,0.799,0.813,0.244,0.249,0.252,0.223,0.383,0.152,0.212,0.157,0.168,0.164,0.234,0.246,0.253,0.235,0.236
NCI-H1355,0.438,0.443,0.447,0.406,0.385,0.735,0.656,0.694,0.732,0.72,0.942,1.02,1.02,1,0.94,0.613,0.654,0.684,0.504,0.757
NCI-H2347,0.476,0.307,0.443,0.206,0.465,0.662,0.892,0.856,0.771,0.862,0.406,0.482,0.408,0.465,0.399,0.627,0.51,,0.492,0.63
LC-2-ad,0.539,0.579,0.517,0.539,0.582,,0.885,0.906,0.811,0.87,,0.313,0.271,0.263,0.25,,0.412,0.524,0.469,0.506
NCI-H1793,0.352,0.318,0.327,0.224,0.189,0.535,0.47,0.784,0.396,0.505,1.16,0.826,1.23,0.874,1.22,0.459,,0.5,0.469,0.588
NCI-H1666,0.567,0.572,0.6,0.53,0.564,0.897,0.993,0.98,0.869,1.1,0.825,0.862,0.854,0.871,0.928,0.625,0.649,0.703,0.711,0.725
HOP-62,0.646,0.646,0.638,0.625,0.577,0.248,0.41,0.416,0.325,0.492,0.239,0.336,0.276,0.215,0.321,0.283,0.373,0.316,0.285,0.289
CAL-12T,0.636,0.638,0.565,0.542,0.467,0.659,0.718,0.638,0.646,0.659,1.05,1.04,1.26,1.13,0.97,0.437,0.388,0.408,0.363,0.35
BEN,0.26,0.255,0.25,0.232,0.25,1.08,1.12,0.967,0.957,0.72,1.11,1.08,0.733,0.812,0.64,0.476,0.494,0.439,0.516,0.395
HCC-366,0.635,0.61,0.578,0.525,0.456,0.233,0.299,0.362,0.265,0.371,0.13,0.21,0.139,0.162,0.158,0.142,0.141,0.111,0.135,0.163

Cell Line,relative viability ([1]; first compound 0.08 µM),relative viability ([1]; first compound 0.253 µM),relative viability ([1]; first compound 0.8 µM),relative viability ([1]; first compound 2.53 µM),relative viability ([1]; first compound 8 µM),relative viability ([2]; first compound 10 µM),relative viability ([2]; first compound 31.62 µM),relative viability ([2]; first compound 100 µM),relative viability ([2]; first compound 316.23 µM),relative viability ([2]; first compound 1000 µM),relative viability ([3]; first compound 10 µM),relative viability ([3]; first compound 31.62 µM),relative viability ([3]; first compound 100 µM),relative viability ([3]; first compound 316.23 µM),relative viability ([3]; first compound 1000 µM),relative viability ([4]; first compound 10 µM),relative viability ([4]; first compound 31.62 µM),relative viability ([4]; first compound 100 µM),relative viability ([4]; first compound 316.23 µM),relative viability ([4]; first compound 1000 µM)
EMC-BAC-2,0.578,0.568,0.463,0.383,0.39,1.14,1.26,1.17,1.22,1,0.429,0.488,0.452,0.492,0.48,0.29,0.307,0.317,0.289,0.32
SW 900,0.714,0.606,0.54,0.362,0.425,0.666,0.624,,0.537,0.761,0.52,0.479,,0.507,0.477,0.476,0.482,0.658,0.461,0.657
A-427,0.393,0.387,0.254,0.3,0.234,0.634,0.717,0.771,0.623,0.633,0.972,1.05,1,1,0.878,0.225,0.255,0.224,0.185,0.245
LCLC-103H,0.363,0.31,0.316,0.297,0.308,0.714,0.852,0.748,0.663,0.883,0.446,0.485,0.434,0.446,0.445,0.557,0.627,0.568,0.556,0.592
NCI-H3122,0.351,0.361,0.319,0.271,0.298,0.867,0.881,0.984,0.845,0.809,0.178,0.171,0.197,0.184,0.222,0.248,0.31,0.388,0.255,0.209
PC-3 [JPC-3],0.471,0.468,0.474,0.448,0.46,0.916,1.12,,0.798,0.651,1.12,1.08,,0.897,0.705,0.772,0.811,0.853,0.779,0.825
EKVX,0.233,0.228,0.234,0.216,0.234,,0.69,0.795,0.609,0.674,,0.301,0.417,0.316,0.294,0.337,0.519,0.443,,0.391
NCI-H2342,0.526,0.588,0.585,0.569,0.577,,0.441,0.366,0.46,0.386,,1.13,0.751,0.786,0.752,0.507,0.447,0.618,0.35,0.276
HCC-827,0.4,0.406,0.212,0.382,0.351,0.245,0.174,0.257,0.217,0.36,0.236,0.282,0.265,0.263,0.263,,0.422,0.442,0.387,0.439
HCC-44,0.153,0.17,0.309,0.22,0.203,,1,1.01,0.994,1.02,,0.593,0.593,0.531,0.603,0.971,0.931,1.06,0.761,0.757
NCI-H838,0.716,0.686,0.521,0.507,0.518,0.972,0.947,0.989,0.99,0.94,0.28,0.266,0.278,0.266,0.271,0.28,0.296,0.349,0.312,0.258
NCI-H2126,0.564,0.501,0.512,0.521,0.523,0.953,0.963,0.916,0.92,0.935,0.648,0.658,0.672,0.579,0.71,0.764,0.834,0.824,0.525,0.53
LXF-289,0.543,0.527,0.519,0.496,0.468,1.05,1.02,1.01,1.05,1.07,0.74,0.83,0.756,0.806,0.784,0.191,0.179,0.206,0.174,0.19
HCC-15,0.472,0.512,0.435,0.39,0.371,,1.07,1.11,1,1.27,0.233,0.21,0.207,0.228,0.22,,0.489,0.395,0.412,0.521
NCI-H2085,0.707,0.715,0.752,0.65,0.656,0.873,0.99,0.979,0.893,0.989,0.917,0.815,0.904,0.881,0.955,0.85,0.746,0.896,0.773,0.841
HCC-78,0.644,0.607,0.691,0.605,0.618,,0.99,0.946,0.846,0.917,,0.878,1.15,0.894,0.908,0.637,0.571,0.487,0.4,0.629
LCLC-97TM1,0.411,0.409,0.424,0.404,0.37,0.205,0.244,0.205,0.27,0.306,,0.198,0.198,0.171,0.188,0.18,0.212,0.212,0.241,0.231
